Source: article PMC5358388 (Proceedings of the National Academy of Sciences of the …, 2017)
Where two headings read alike, the source gives them in different places.

Columns and labels:
[1] = tested on: cytosolic labile heme in P. falciparum; format: cell-based, Plasmodium falciparum
P. falciparum = experiment: Growth inhibition of P. falciparum lines by chloroquine; format: cell-based; conditions: Plasmodium falciparum

Structure (SMILES)	change in labile heme concentration, treated vs untreated parasites ([1]; pyrimethamine 125 and 500 nM, 32 h)	IC50 (P. falciparum; read-out: chloroquine IC50 (95% CI), parasites expressing CH49Y)	IC50 (P. falciparum; read-out: chloroquine IC50 (95% CI), parental NF54attB line)	average Δ[heme], increase in labile heme concentration vs untreated control ([1]; 60 nM chloroquine, four independent experiments, P = 0.002)	lower bound on labile cytosolic heme level ([1]; 60 nM chloroquine, assuming no chloroquine in the cytosol)	upper bound on labile cytosolic heme level ([1]; 60 nM chloroquine, assuming ≥1:1 chloroquine:heme in the cytosol)
CCc1nc(N)nc(N)c1-c1ccc(Cl)cc1 [pyrimethamine]	No increase in labile heme concentration	–	–	–	–	–
CCN(CC)CCCC(C)Nc1ccnc2cc(Cl)ccc12 (stereo not drawn) [chloroquine]	–	10.3 to 11.3 nM	8.2 to 9.7 nM	+0.86 µM	~2.8 µM	~7 µM
